Molecular target: Pyruvate dehydrogenase kinase 1 (PDK1) (Homo sapiens, UniProt Q15118)
Experiment: ELISA-based in-well kinase assay: active PDK1 (Abcam) phosphorylating captured PDHA1 at Ser232
Type: biochemical

Sequence of Pyruvate dehydrogenase kinase 1 (PDK1) (Q15118 29-436): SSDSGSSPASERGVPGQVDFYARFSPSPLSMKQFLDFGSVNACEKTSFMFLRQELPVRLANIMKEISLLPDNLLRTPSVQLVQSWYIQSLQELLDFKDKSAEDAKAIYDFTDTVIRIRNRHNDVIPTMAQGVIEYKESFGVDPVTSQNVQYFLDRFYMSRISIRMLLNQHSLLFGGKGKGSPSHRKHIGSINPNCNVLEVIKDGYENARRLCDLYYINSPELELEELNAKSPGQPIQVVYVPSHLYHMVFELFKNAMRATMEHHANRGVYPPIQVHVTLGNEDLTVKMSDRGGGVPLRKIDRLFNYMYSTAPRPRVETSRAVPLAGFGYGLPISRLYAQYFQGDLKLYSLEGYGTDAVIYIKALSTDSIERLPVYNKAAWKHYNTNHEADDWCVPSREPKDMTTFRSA

Question: `O=c1oc2ccccc2c(O)c1Cc1c(O)c2ccccc2oc1=O` [DIC, dicumarol] was tested. Which IC50 did it give?
Answer: Its IC50 is 19.42 ± 0.032 µM.
